Reference: PMC9779571, “Guanidine Derivatives Containing the Chalcone Skeleton Are Potent Antiproliferative Compounds against Human Leukemia Cells” (International Journal of Molecular Sciences, 2022)
Where “and” joins values, the source holds several entries; their conditions need not be identical. Equal entries are not always repeated.

What was measured:
Assay type in all cases: cell-based, human
SK-MEL-1 cells = test: MTT cytotoxicity assay, SK-MEL-1; conditions: means ± SEM
Text: (§1) U-937, HL-60, MOLT-3, NALM-6, and SK-MEL-1 cells were from DSMZ (German Collection of Microorganisms and Cell Cultures, Braunschweig, Germany). U-937/Bcl-2 cells were kindly provided by Dr. Jacqueline Bréard (INSERM U749, Faculté de Pharmacie Paris-Sud, Châtenay-Malabry, France). The U-937 is a pro-monocytic, human promyelocytic leukemia cell line that was isolated from a histiocytic lymphoma. HL-60 is a human acute myeloid leukemia cell line. MOLT-3 is a human acute lymphoblastic leukemia cell line. NALM-6 is a human B cell precursor leukemia. SK-MEL-1 is a human melanoma cell line growing singly or in clumps (occasional giant, polynucleated cell) in suspension. Cells were cultured in RPMI 1640 medium containing 10% (v/v) heat-inactivated fetal bovine serum, 100 μg/mL streptomycin, and 100 U/mL penicillin, incubated at 37 °C in a humidified atmosphere containing 5% CO2 as described. The doubling times of the cell lines were 24 h in HL-60, 30 h in U-937, U-937/Bcl-2, 40 h in MOLT-3 and NALM-6, and several days in SK-MEL-1 cells. Human peripheral blood mononuclear cells (PBMC) were isolated from heparin-anticoagulated blood of healthy volunteers by centrifugation with Ficoll-Paque Plus (GE Healthcare Bio-Sciences AB, Uppsala, Sweden). PBMC were also stimulated with phytohemagglutinin (2 µg/mL) for 48 h before the experimental treatment. The trypan blue exclusion method was used for counting the cells by a hemocytometer with 95% viability in all the experiments. Compounds were dissolved in dimethyl sulfoxide (DMSO) and kept under dark conditions at 25 °C. […] The cytotoxicity of the synthetic compounds was evaluated by colorimetric 3-(4,5-dimethyl-2-thiazolyl-)-2,5-diphenyl-2H-tetrazolium bromide (MTT) assay as previously described. Briefly, cells (5000 per well) were incubated with increasing concentrations of compounds for 72 h into a 96-well plate. Then, the supernatants were removed and 0.5 mg/mL MTT was added and incubated for 4 h at 37 °C. Sodium dodecyl sulfate (10% w/v) in 0.05 M HCl was added to solubilize the reaction products and the absorbance was measured at 570 nm with a reference wavelength of […] using an ELISA reader (Bio-Rad, Hercules, CA, USA). The IC50 values (concentrations inducing a 50% inhibition of cell viability) were determined graphically for each experiment by a nonlinear regression using the curve fitting routine implemented within the software Prism 5.0 (GraphPad, La Jolla, CA, USA).

U-937/Bcl-2 cells = test: MTT cytotoxicity assay, U-937/Bcl-2; conditions: means ± SEM
Text: as §1

[1] = test system: caspases-3/7, -8, and -9 in U-937 cells; test: Caspase activity in lysates of treated cells (colorimetric tetrapeptide substrates); conditions: U-937, 10 µM, 24 h
Description: Caspase activity was determined by measuring proteolytic cleavage of specific chromogenic substrates as previously described. Briefly, cells were treated with the specified guanidines for 24 h, harvested by centrifugation (1000× g for 5 min at 4 °C), washed twice with PBS, resuspended in lysis buffer (50 mM HEPES, pH 7.4, 0.1 mM EDTA, 1 mM dithiothreitol, and 0.1% Chaps), spun (17,000× g for 10 min at 4 °C) and the supernatants were normalized by protein concentration and used to determine enzyme activity. The net increase in absorbance at 405 nm after incubation at 37 °C was indicative of caspase activity. The colorimetric substrates were DEVD-pNA (for caspase-3 like protease activity), IETD-pNA (for caspase-8 activity), and LEHD-pNA (for caspase-9 activity).

NALM-6 cells = test: MTT cytotoxicity assay, NALM-6; conditions: 72 h, MTT, means ± SEM
Text: as §1

MOLT-3 cells = test: MTT cytotoxicity assay, MOLT-3; conditions: means ± SEM
Text: as §1

U-937 leukemia cells = test: Cell cycle and sub-G1 analysis by flow cytometry (propidium iodide); conditions: 24 h; for fold increase of sub-G1 cells over control / %G1 / %G2-M / %S / %Sub-G1: 10 µM; for fold increase of sub-G1 cells over control: U-937; for %G1 / %G2-M / %S / %Sub-G1: U-937, means ± S.E.; for cell cycle arrest: U-937, 10 µM
Description: (§2) Cells (2.5 × 10^5) were centrifuged for 10 min at 500× g, washed with cold PBS, fixed with ice-cold 75% ethanol and stored at −20 °C overnight. Samples were then centrifuged at 500× g for 10 min at 4 °C, washed with PBS, resuspended in 200 μL of PBS containing 100 μg/mL RNase and 50 μg/mL propidium iodide and incubated for 1 h in the dark. The DNA content was analyzed by flow cytometry with a BD FACSVerse^TM cytometer (BD Biosciences, San Jose, CA, USA). Apoptosis was also evaluated by flow cytometric analysis of double-staining annexin V-FITC and propidium iodide cells as previously described.

PBMC = test: Annexin V-FITC/propidium iodide flow cytometry, PBMC; conditions: 24 h; for annexin V-FITC positive cells with respect to control: 3 µM; for fold increase of annexin V-FITC positive cells with respect to control / annexin V-FITC positive cells: 10 µM; for annexin V-FITC positive cells: control 9.3%
Text: as §1, §2

U-937 cells = test: Annexin V-FITC/propidium iodide flow cytometry, U-937; conditions: U-937, 10 µM, 24 h; for annexin V-FITC positive cells: control 3.5%
Description: as §2

Row | Structure (SMILES) | IC50 (SK-MEL-1 cells; Homo sapiens, SK-MEL-1, 72 h) | IC50 (U-937/Bcl-2 cells; Homo sapiens, U-937, 72 h) | caspase-8 activation [1] | increase of caspase-3/7 and caspase-9 activities compared with control [1] | IC50 (NALM-6 cells; Homo sapiens, NALM-6, 72 h) | IC50 (MOLT-3 cells; Homo sapiens, MOLT-3, 72 h) | fold increase of sub-G1 cells over control (U-937 leukemia cells) | %G1 (U-937 leukemia cells) | %G2-M (U-937 leukemia cells) | %S (U-937 leukemia cells) | %Sub-G1 (U-937 leukemia cells) | cell cycle arrest (U-937 leukemia cells) | annexin V-FITC positive cells with respect to control (PBMC) | fold increase of annexin V-FITC positive cells with respect to control (PBMC) | annexin V-FITC positive cells (PBMC) | fold increase of annexin V-FITC positive cells over control (U-937 cells) | annexin V-FITC positive cells (U-937 cells) | other results
1 | Cc1ccc(S(=O)(=O)NC(=Nc2ccc(/C=C/C(=O)c3c(O)cccc3OCc3ccccc3)cc2)N2CCN(C)CC2)cc1 [Compound 6f] | 4.5 ± 0.4 µM | 2.2 ± 0.8 µM | less activated | approximately three-fold | 2.7 µM | 1.5 µM | ~ 10 fold | 35.2 ± 3.8 % | 10.8 ± 1.6% | 28.3 ± 0.2% | 25.1% and 25.1 ± 2.6 % | not caused by a significant cell cycle arrest in any phase | hardly increased | 3 fold | 27% | 11 fold | 38% | –
2 | O=C(/C=C/c1ccc(N=C(Nc2ccccc2)N2CCCCC2)cc1)c1c(O)cccc1OCc1ccccc1 [Compound 6i] | ~10 µM | < 10 µM | less activated | two-fold | ~10 µM | < 10 µM | ~ 13 fold | 35.9 ± 2.1 % | 8.4 ± 0.1 % | 23.6 ± 2.4 % | 31.6% and 31.6 ± 4.5 % | not caused by a significant cell cycle arrest in any phase | hardly increased | 1.4 fold | 13% | 10 fold | 36% | IC50 (SK-MEL-1 cells; 72 h): 13.8 ± 1.2 µM; IC50 (U-937/Bcl-2 cells; 72 h): 5.1 ± 1.8 µM; IC50 (NALM-6 cells): 10.8 ± 0.5 µM; IC50 (MOLT-3 cells; 72 h): 7.1 ± 1.3 µM
